Read-outs that look alike come from different tables or passages of the source.
Legend:
stimulated PBMC [1] = assay: IC50 on stimulated (actively dividing) PBMC; type: cell-based, human; details: Homo sapiens, PBMC
Procedure: (§1) The compound toxicity was determined as follow:
(§2) Therapeutic Index=Safety/Potency=IC50 stimulated PBMC/IC50 cancer cell

stimulated PBMC [2] = assay: IC50 on stimulated (actively dividing) PBMC; type: cell-based, human; details: PBMC Stim; Table IV
HT29 = assay: MTT colorimetric assay on epithelial intestinal cancer cells; type: cell-based; details: for Therapeutic Index (TI), Resting PBMC: IC50 resting PBMC / IC50 HT29; for Therapeutic Index (TI), Stimulated PBMC: IC50 stimulated PBMC / IC50 HT29
Procedure: The experiment was performed to test and define anticancer activity in vitro of Cortexolone 17α-benzoate and cortexolone 17α-valerate, 21-propionate on cell lines representatives of epithelial intestinal tumours, namely HT29. The experiment method consisted in: • 1. Monolayer HT-29 cells were plated in: 96-wells plates at the density of 2×10^4 cells/mL. The cells plated were kept at 37° C. in 5% CO2 and left to attach for 24 h. • 2. […] After 72 h of treatment, the MTT colorimetric assay was performed.

PC3 = assay: ATP-dependent cell viability assay (Cell Titer Glo), Example 12; details: for IC50: Homo sapiens
Text: (§3) Data shown in Table I were fitted through sigmoidal dose response curves and analyzed using Prizm statistical.

Panc1 = assay: as above; details: for IC50: Homo sapiens
Text: as §3

LNCaP = assay: as above; details: LNCaP; for IC50: Homo sapiens
Text: as §3

MiaPaca2 = assay: as above; details: for IC50: Homo sapiens
Text: as §3

resting PBMC = assay: IC50 on resting (quiescent) PBMC; type: cell-based, human; details: Homo sapiens, PBMC
Procedure: The IC50 in PBMCs were tested in 2 different activation status: • stimulated—actively dividing cells • resting—quiescent, non-dividing cells
The IC50 in PBMCs were tested in 2 different activation status: • Stimulated—actively dividing cells • Resting—quiescent, non-dividing cells.
IC50 of the compounds was determined on fresh cells isolated from human blood (PBMC).

BxPC3 = assay: In vitro proliferation, larger panel (Example 14); details: for IC50: Homo sapiens
Text: as §3

PC3 (AR−) = assay: ATP-dependent proliferation assay with 10 nM DHT, prostate cancer cells (Examples 1, 2); type: cell-based, human; details: Homo sapiens, PC3/AR
Procedure: (§4) The experiment was performed to test and to define the antitumor activity in vitro of cortexolone 17α-benzoate on LNCaP (AR^+) and PC3 (AR^−), representative of Prostatic cancer cell lines with Androgen receptor positive or negative expression, respectively. The experimental method consisted of: • 1. […] After 24 hrs, 10 nM DHT (dihydrotestosterone) with or without anti-androgen compounds, or DMSO vehicle (negative control) was added to the cultures. • 3.
(§5) Data from Experiment 1 was fitted through sigmoidal dose response curves and analyzed using Prizm statistical analysis software. […] The results from 2 sets of experiments follow.
(§6) The experiment was performed to test and to define antitumor activity in vitro of cortexolone 17α-valerate-21-propionate on LNCaP (AR^+) and PC3 (AR^−), representative of Prostatic cancer cell lines with Androgen receptor positive or negative expression, respectively. The experimental method consisted of: • 1. […] After 24 hours, 10 nM DHT (dihydrotestosterone) with or without anti-androgen compounds, or DMSO vehicle (negative control) was added to the cultures. • 3.

LNCaP (AR+) = assay: as above; type: cell-based, human; details: Homo sapiens, LNCaP/AR
Procedure: as §4, §5, §6

Panc1 (AR+) = assay: ATP-dependent proliferation assay with 10 nM DHT, pancreatic cancer cells (Examples 3, 4, 7); details: for IC50: Homo sapiens; for TI on Resting PBMC: IC50 resting PBMC / IC50 Panc1; for TI on Stimulated PBMC: IC50 stimulated PBMC / IC50 Panc1
Procedure: (§7) The experimental method consisted of: • 1. […] After 24 hrs, 10 nM DHT (dihydrotestosterone) with or without anti-androgen compounds, or DMSO vehicle (negative control) was added to the cultures. • 3.
(§8) Data from Experiment 1 were fitted through sigmoidal dose response curves and analyzed using Prizm statistical analysis software. […] The results from 2 sets of experiments follow.
(§9) Data from Experiment 1 was fitted through sigmoidal dose response curves and analyzed using Prizm statistical analysis software.

MiaPaca2 (AR low) = assay: as above; details: for IC50: Homo sapiens; for TI on Resting PBMC: IC50 resting PBMC / IC50 MiaPaca2; for TI on Stimulated PBMC: IC50 stimulated PBMC / IC50 MiaPaca2
Procedure: as §7, §8, §9

7 cancer cell lines = assay: Therapeutic index over a panel of cancer cell lines; type: cell-based; details: average over the cancer cell lines of Table VII
Procedure: as §1, §2

MCF7 = assay: In vitro proliferation / cytotoxic assay on breast cancer cells (Examples 14, 25); details: for IC50: Homo sapiens
Procedure: as §3
For the cytotoxic assay, cells were seeded in 96-well flat bottom culture plates in media containing charcoal stripped serum. After 24 hours, test compounds were added to the cells. DMSO was used as the vehicle negative control and RU486 as the positive control. After 72 hour incubation, cells were harvested and lysed to determine cell viability using the Cell Titer Glow assay.

[3] = Homo sapiens, HT-29, 72 h, read-out: Inhibition (%) on HT29
[4] = Experiment 1, 0 = higher toxicity in PBMC

SMILES: C[C@]12CCC(=O)C=C1CC[C@@H]1[C@@H]2CC[C@@]2(C)[C@H]1CC[C@]2(OC(=O)c1ccccc1)C(=O)CO [CB-03-06, cortexolone 17α-benzoate]
- IC50 (stimulated PBMC [1]; read-out: IC50 on Stimulated PBMC, Example 7, Experiment 1): 113 µM
- IC50 (stimulated PBMC [1]; read-out: IC50 on Stimulated PBMC, Example 7, Experiment 2): 97 µM
- IC50 (stimulated PBMC [1]; read-out: In vitro proliferation IC50, PBMC STIMULATED, Table IV): 97 µM
- IC50 (stimulated PBMC [1]; read-out: in vitro proliferation IC50, PBMC STIMULATED, Table III): 97 µM
- Therapeutic Index = IC50 resting PBMC/IC50 cancer cell (stimulated PBMC [2]): 1
- Therapeutic Index = IC50 resting PBMC/IC50 cancer cell (HT29; HT29, Table IV): 6
- Therapeutic Index = IC50 stimulated PBMC/IC50 cancer cell (HT29; HT29, Table VII): 6
- IC50 (HT29; Homo sapiens, HT-29, 72 h, read-out: IC50 Calculated): 16 µM
- inhibition at 0.8 µM (HT29; [3]): -1.55%
- inhibition at 4 µM (HT29; [3]): 20.4%
- inhibition at 20 µM (HT29; [3]): 53.6%
- inhibition at 100 µM (HT29; [3]): 92.2%
- inhibition at 500 µM (HT29; [3]): 92.3%
- IC50 (HT29; Homo sapiens, HT-29, read-out: In vitro proliferation IC50): 16 µM
- IC50 (HT29; Homo sapiens, HT-29, read-out: in vitro proliferation IC50): 13 µM
- Therapeutic Index (TI), Resting PBMC (HT29; Experiment 1): 6
- Therapeutic Index (TI), Resting PBMC (HT29; Experiment 2): 5
- Therapeutic Index (TI), Stimulated PBMC (HT29; Experiment 1): 7
- Therapeutic Index (TI), Stimulated PBMC (HT29; Experiment 2): 6
- IC50 (PC3; PC-3, 72 h): 28 µM
- IC50 (PC3; PC-3, read-out: In vitro proliferation IC50): 28 µM
- IC50 (PC3; PC-3, read-out: in vitro proliferation IC50): 28 µM
- Therapeutic Index = IC50 resting PBMC/IC50 cancer cell (PC3; PC3, Table IV): 3
- Therapeutic Index = IC50 stimulated PBMC/IC50 cancer cell (PC3; PC3, Table VII): 3
- IC50 (Panc1; PANC-1, 72 h): 28 µM
- IC50 (Panc1; PANC-1, read-out: In vitro proliferation IC50): 28 µM
- IC50 (Panc1; PANC-1, read-out: in vitro proliferation IC50): 28 µM
- Therapeutic Index = IC50 resting PBMC/IC50 cancer cell (Panc1; Panc1, Table IV): 3
- Therapeutic Index = IC50 stimulated PBMC/IC50 cancer cell (Panc1; Panc1, Table VII): 3
- IC50 (LNCaP; 72 h): 12 µM
- IC50 (LNCaP; read-out: In vitro proliferation IC50): 12 µM
- IC50 (LNCaP; read-out: in vitro proliferation IC50): 12 µM
- Therapeutic Index = IC50 resting PBMC/IC50 cancer cell (LNCaP; Table IV): 8
- Therapeutic Index = IC50 stimulated PBMC/IC50 cancer cell (LNCaP; Table VII): 8
- IC50 (MiaPaca2; MIA PaCa-2, 72 h): 20 µM
- IC50 (MiaPaca2; MIA PaCa-2, read-out: In vitro proliferation IC50): 20 µM
- IC50 (MiaPaca2; MIA PaCa-2, read-out: in vitro proliferation IC50): 20 µM
- Therapeutic Index = IC50 resting PBMC/IC50 cancer cell (MiaPaca2; MiaPaca2, Table IV): 5
- Therapeutic Index = IC50 stimulated PBMC/IC50 cancer cell (MiaPaca2; MiaPaca2, Table VII): 5
- IC50 (resting PBMC; read-out: IC50 on Resting PBMC, Example 7, Experiment 1): 100 µM
- IC50 (resting PBMC; read-out: IC50 on Resting PBMC, Example 7, Experiment 2): 85 µM
- IC50 (resting PBMC; read-out: in vitro proliferation IC50, PBMC RESTING, Table III): 85 µM
- Therapeutic Index = IC50 resting PBMC/IC50 cancer cell (BxPC3; BxPC3, Table IV): 3
- Therapeutic Index = IC50 stimulated PBMC/IC50 cancer cell (BxPC3; BxPC3, Table VII): 3
- IC50 (BxPC3; BXPC-3, read-out: In vitro proliferation IC50): 28 µM
- IC50 (BxPC3; BXPC-3, read-out: in vitro proliferation IC50): 28 µM
- IC50 (PC3 (AR−)): 28 µM
- IC50 (PC3 (AR−); 72 h): 29 µM
- IC50 (LNCaP (AR+)): 12 µM
- IC50 (LNCaP (AR+); 72 h): 12 µM
- IC50 (Panc1 (AR+); PANC-1, 72 h, Panc1, Experiment 1, sigmoidal dose response fit, 10 nM DHT, 3 days): 30 µM
- IC50 (Panc1 (AR+); PANC-1, Panc1, Example 7, Experiment 1): 23 µM
- IC50 (Panc1 (AR+); PANC-1, Panc1, Example 7, Experiment 2): 28 µM
- IC50 (Panc1 (AR+); PANC-1, Panc1, Experiment 2, nonlinear regression least squares fit, additional experiments): 28 µM
- TI on Resting PBMC (Panc1 (AR+); [4]): 4
- TI on Resting PBMC (Panc1 (AR+); Experiment 2): 3
- TI on Stimulated PBMC (Panc1 (AR+); [4]): 5
- TI on Stimulated PBMC (Panc1 (AR+); Experiment 2): 3
- IC50 (MiaPaca2 (AR low); MIA PaCa-2, 72 h, MiaPaca2, Experiment 1, sigmoidal dose response fit, 10 nM DHT, 3 days): 23 µM
- IC50 (MiaPaca2 (AR low); MIA PaCa-2, MiaPaca2, Example 7, Experiment 1): 17 µM
- IC50 (MiaPaca2 (AR low); MIA PaCa-2, MiaPaca2, Example 7, Experiment 2): 20 µM
- IC50 (MiaPaca2 (AR low); MIA PaCa-2, MiaPaca2, Experiment 2, nonlinear regression least squares fit, additional experiments): 20 µM
- TI on Resting PBMC (MiaPaca2 (AR low); [4]): 6
- TI on Resting PBMC (MiaPaca2 (AR low); Experiment 2): 4
- TI on Stimulated PBMC (MiaPaca2 (AR low); [4]): 7
- TI on Stimulated PBMC (MiaPaca2 (AR low); Experiment 2): 5
- Therapeutic Index = IC50 stimulated PBMC/IC50 cancer cell, AVERAGE (7 cancer cell lines): 5
- IC50 (MCF7; MCF7, 72 h): 25 µM
- IC50 (MCF7; MCF7, read-out: In vitro proliferation IC50): 25 µM
- IC50 (MCF7; MCF7, read-out: in vitro proliferation IC50): 25 µM
- Therapeutic Index = IC50 resting PBMC/IC50 cancer cell (MCF7; MCF7, Table IV): 4
- Therapeutic Index = IC50 stimulated PBMC/IC50 cancer cell (MCF7; MCF7, Table VII): 4

Source: US10231980B2, “Cortexolone 17alpha-benzoate for use in the treatment of tumours” (COSMO TECHNOLOGIES LTD., priority 2014, dated 2019)
